Results on 89 molecules are retold here after a melting point compilation (Tetko et al.; mined from patent text by program, amines drawn as free bases though some values may be those of a salt).

Structures are written as SMILES.

The melting point is the temperature, or range, at which the solid turns liquid.

With `COc1ccccc1-n1c(=O)[nH]c2c(C(N)=O)nc(-c3cccc(C(=O)O)c3)nc21`, the melting point fell in the range of 348 to 350 °C. With `CCCc1[nH]c(C)c(C(C)=O)c1C`, the melting point fell in the range of 157 to 158 °C. Turning to `C=C(C)C(=O)Oc1ccc(S(=O)(=O)ON=C(C#N)c2cccs2)cc1`, the melting point was in the range of 165 to 166 °C.

In turn, `Cc1c(C(=O)O)oc2c(C(=O)c3ccc(Cl)cc3)cc(C(C)(C)C)c(O)c12` registered a melting point of 214 to 216 °C. In the case of `CCCc1c2c(c(OC)c3c(=O)cc(C(=O)OC)oc13)CCCC2`, the melting point fell in the range of 92 to 93 °C. With `O=C(O)Cc1c(-c2ccccc2)c2cc3c(cc2oc1=O)C(=O)OC3`, the melting point was 226 to 227 °C.

Regarding `CCCc1cc(C(C)=O)c(O)cc1OCCCCC(=O)O`, the melting point came to 106 °C. `CCOC(=O)c1c(N)nc(C)c(NC(C)=O)c1C` came in with a melting point of 168 to 170 °C. `CCOC(=O)C(C)=Cc1cc(F)c(F)c(F)c1` showed a melting point of 54 °C. On to `Cc1[nH]c(=O)c(C#N)cc1C(=O)CBr`, for which the melting point is 212 to 214 °C. Molecule `COc1cc(N)c(Cl)cc1C(=O)NCC1CCN(CCCCCCOCc2ccccc2)CC1` registered a melting point of 91 to 95 °C.

As for `O=C(C#Cc1ccc(Cl)cc1Cl)Nc1ccc2oc(CCN3CCCC3)nc2c1`, the melting point worked out at 130 °C. Consider `COc1ccc(CN2C(=O)C(O)(c3cc(CO)ccc3Cl)c3cc(Cl)ccc32)c(OC)c1` (centres undefined), for which the melting point was found to be 107 °C. Regarding `Cc1nc(N)sc1S(=O)(=O)NC(C)(CO)CO`, the melting point amounted to 170 °C. In turn, `O=C(CNc1ccccc1)Nc1cc(Cl)ccc1C(=O)O` showed a melting point of 229 to 230 °C. The result for `CC(C)C1=C(Sc2ccccc2)C(c2ccc(F)cc2)=C(C(C)O)C(C(C)C)N1C` (centres undefined) reads 125 to 128 °C; that for `CC1CN(Cc2ccc(Cl)nc2)C(=C[N+](=O)[O-])N1` (centres undefined), 170 to 174 °C.

Consider `COC(=O)c1cc(C(=O)c2nc(Br)c3ccccn23)ccc1N`, for which the melting point worked out at 230 °C.

Take `COc1cc(NC(=C(C#N)S(C)(=O)=O)C(C)C)cc(OC)c1`: the melting point lay within 135 to 136 °C. In turn, `CC1=C(C)C(=O)N(OC(=S)N(C)C)C1=O` registered a melting point of 135 to 138 °C. Molecule `CCOC(=O)C(=O)c1cccc(NC=O)n1` yielded a melting point of 124 to 126 °C. Regarding `Cc1ccc(-c2cccc(/C=C/C(=O)Nc3ccc(C(O)c4ccccn4)cc3)c2)cc1` (centres undefined), the melting point is 162 to 165 °C. For the molecule `COc1ccc(N2CCN(C(=O)C(C)(C)C3OCCc4ccccc43)CC2)cc1` (centres undefined), the melting point fell in the range of 120 to 121 °C.

On to `CCNC(=O)c1ccc(C#CCc2ccc3c(c2)C(C)(C)CCC3(C)C)cc1`, for which the melting point is 128 to 129 °C. `O=C1C2C3C=CC(C4CC34)C2C(=O)N1c1ccc([N+](=O)[O-])cc1` (centres undefined) gave a melting point of 210 to 212 °C. The result for `O=c1[nH]nc(-c2ccc(-n3ccnc3)cc2)c2cccnc12` reads 359 to 361 °C; that for `CCOC(=O)Cn1c(=S)c2cc(Cl)ccc2n(Cc2ccc(Br)cc2F)c1=O`, 89 to 90 °C. In turn, `Nc1cccc(Nc2nccc(-c3cccnc3)n2)c1` came in with a melting point of 89 to 90 °C. With `Cc1ncc(C(=O)NCc2cc(C(F)(F)F)cc(C(F)(F)F)c2)c(-c2ccccc2Br)n1`, the melting point was 138 °C. The result for `C#CCN(c1ccc(C(=O)OC(C)(C)C)c(F)c1)C1CCc2cc3nc(C)[nH]c(=O)c3cc21` (racemic) reads 248 to 250 °C. The molecule `COC(=O)C(=NO)N(C)c1cccc(C(F)(F)F)c1` gave a melting point of 131 °C. The result for `CCOc1cc2c(Nc3cc(OC)c(Cl)cc3Cl)c(C#N)cnc2cc1OCCCN1CCN(C)CC1` reads 137 to 138 °C; that for `O=C(O)c1cn(-c2cnsn2)c2c(F)c(F)c(F)cc2c1=O`, 205 to 207 °C. The molecule `Cc1cc(F)c(F)c(C=O)c1O` returned a melting point of 53 to 56 °C. `CC(C)(C)C(=O)Oc1ccc(CCNC(=O)c2cccnc2)cc1OC(=O)C(C)(C)C` came in with a melting point of 112 to 114 °C. Take `CCOC(=O)c1cc2c3n(ccc-2n1)C(Br)C=N3` (centres undefined): the melting point was in the range of 280 to 282 °C. Under `Cc1cc(C)c(S(=O)(=O)N(C)C)cc1[N+](=O)[O-]` stands 113 °C.

Take `CCCc1cc(-c2ccc(C3COC(c4c(F)cccc4F)=N3)cc2)ccc1O` (centres undefined): the melting point was 210 to 215 °C. Turning to `COc1ccccc1N1CCN(CCCNC(=O)c2csc3c(=O)cc(C(F)(F)F)oc23)CC1`, the melting point was 170 to 177 °C.

The molecule `Cc1nc2c(OCc3c(Cl)ccc(N(C)C(=O)CN4C(=O)c5ccccc5C4=O)c3Cl)cccc2n1C` came in with a melting point of 226 to 227 °C. As to `COc1cc2c(c(OC)c1/C=C/c1ccc(COC(C)=O)cc1)C(C)(C)CCC2(C)C`, the melting point is 73 to 74 °C. For `O=C1c2cccc(Br)c2C(=O)N1CCCCCn1cncn1`, the melting point was in the range of 102 to 104 °C. For the molecule `COC(=O)c1ccc(OCCF)cc1`, the melting point was 77 °C. Molecule `COc1ccc(-c2cc(CN3CCN(C)CC3)c(=O)n(CC=Cc3ccc(Cl)cc3)n2)cc1F` registered a melting point of 124 to 126 °C.

On to `Cc1cc(-c2cccc(C(F)(F)F)c2)c2ncc(OCC(F)(F)F)nc2c1`, for which the melting point is 114 to 117 °C. With `CCc1ccc(-c2onc3ccccc23)cc1`, the melting point was 42 to 42.5 °C. In the case of `O=C1OCCCC1=Cc1ccccc1OCC(O)CN1CCC(c2ccc3ccccc3c2)CC1` (centres undefined), the melting point is 142 to 144 °C. The result for `OCC(O)(Cn1cncn1)c1ccc(F)cc1F` (centres undefined) reads 99 to 100 °C. For `CSc1ccccc1C(=O)Nc1ccc(C(=O)N2Cc3ccccc3Cc3ccccc32)cc1`, the melting point is 222 to 225 °C. The result for `CNC(=S)Nc1ccccc1N1CCCC1` reads 125 to 126 °C. The molecule `CCCCCCCCCCCCCCCCCCOc1ccc(O)c(C(=O)OC)c1` showed a melting point of 53 to 54 °C. The result for `COc1ccc(Oc2ccc(C(C)=C3SCCCS3=O)cc2)cc1` (centres undefined) reads 136 to 138 °C; that for `CCc1c(NC(=O)c2cc(S(C)(=O)=O)ccc2OCC(C)C)c(C(N)=O)nn1Cc1nccn1C`, 201 to 206 °C; that for `N=C(N)NCCc1ccc(OCCC2Oc3ccccc3N(Cc3cccc4ccccc34)C2=O)cc1` (centres undefined), 75 to 80 °C. `CCCCOCCOc1ccc(-c2ccc(N3CCCC3)c(C(C)=CC(=O)O)c2)cc1` came in with a melting point of 128 °C. Take `COc1ccc(-c2cc3ccccc3[nH]2)cc1NCc1ccc([N+](=O)[O-])cc1`: the melting point was 198 to 199 °C. Regarding `COC(=O)COc1ccc(Cn2c(-c3ccc(C(F)(F)F)cc3)c(C)c3cc(OCc4ccccc4)ccc32)cc1`, the melting point turned out to be 221 °C. As to `Cc1cc(NC(=O)CC(C)(C)C)c(C)c2c1OC(C)(C)C2c1ccc(C(C)C)cc1` (centres undefined), the melting point fell in the range of 118 to 119 °C. In turn, `N#CCCN1CCN(c2cc3cccnc3c(-c3cccc(C#N)c3)n2)CC1` yielded a melting point greater than 200 °C. The molecule `COc1ccccc1C=C(C=O)C(C=O)=Cc1ccccc1OC` came in with a melting point of 163 to 164 °C. `O=[N+]([O-])c1ncn(COC(CO)CO)n1` yielded a melting point of 132 °C. On to `Cc1ccc(Cc2cnc(NCCCN(Cc3ccc(Cl)cc3)c3ccccn3)[nH]c2=O)cn1`, for which the melting point fell in the range of 88 to 92 °C.

Molecule `Cc1cc2oc(C(=O)O)cc(=O)c2c(C)c1Cl` yielded a melting point of 289 to 290 °C. Take `Nc1ccnc(N)c1I`: the melting point came out at 140 °C. Under `COC(=O)C(=O)c1ccc(OCCOc2ccc3c(c2)CCCC3)cc1` stands 95 to 99 °C; under `COC(=O)CCc1cnc(C)s1`, 115 °C; under `N#Cc1c(NC2CCCCC2)cccc1-c1ccccc1`, 125 to 126 °C. The result for `COc1ccc(N)c(OC)c1COc1cccc2ccc(C)nc12` reads 208 to 210 °C; that for `Cc1cc(O)ccc1-c1ccc(C=NO)c(Cl)c1`, 169 to 171 °C. `O=S(=O)(O)c1ccc(Nc2cnnc3cc(Cl)ccc23)cc1`: the melting point was greater than 280 °C. The result for `CCCc1c(C(=O)C=C(C)C)c2ccc(C(N)=O)cc2n1Cc1cc2c(cc1Cl)OCO2` reads 227 to 229 °C; that for `N[C@@H]1C(=C2OCc3ccccc32)[C@@H]2C[C@H]1C(=C1OCc3ccccc31)[C@H]2N`, 108 °C; that for `CCc1n[nH]c(CC)c1CCCCCCOc1ccc(OC)cc1Cl`, 91 to 93 °C.

Take `CCNc1nc(Nc2ccccc2)ncc1C=CC#N`: the melting point lay within 244 to 246 °C. Take `CC(C)(C)c1cc2c(c(C(C)(C)C)c1)OC(C(F)(F)F)C(C(=O)O)=C2` (centres undefined): the melting point was in the range of 172 to 175 °C. Under `COc1ccc(Oc2ccccc2)cc1NC(=O)c1ccn2c1CSC2c1cccnc1` (centres undefined) stands 158 °C; under `CCc1cc(C#N)c(OC)nc1C`, 59 to 61 °C. For `CCCCCCCCCCCCCCCc1c([N+](=O)[O-])cc([N+](=O)[O-])c(O)c1[N+](=O)[O-]`, the melting point was 53 to 56 °C.

For the molecule `COC(=O)CCc1cc2c(c(C(C)(C)C)c1)OC(=O)C2c1cc(C)ccc1C` (centres undefined), the melting point is 80 °C.

Molecule `Cn1nc(Br)c([N+](=O)[O-])c1NC(C)(C)C` had a melting point of 75 to 77 °C. On to `COc1cc(-n2cnc3cc(-c4ccc(Cl)cc4)sc3c2=O)ccc1OC[C@H](OP(=O)(O)O)C1CC1`, for which the melting point was 166 °C. Molecule `CNC(=O)c1cccc(Cl)c1Nc1nc(Nc2ccc3c(c2)CCCC(=O)N3C)ncc1Cl` displayed a melting point of 145 to 160 °C.

In turn, `Fc1cccc(F)c1C1=NC(c2cc3sc(-c4ccc(OC(F)(F)F)cc4)cc3s2)CC1` (centres undefined) yielded a melting point of 135 °C. The result for `Cc1ccnc2c1C(=O)c1c(C)cc(=O)[nH]c1C2=O` reads 258 to 261 °C. `CCOC(=O)Cc1csc(NC(N)=O)n1` gave a melting point of 173 to 174 °C. In turn, `CC(C)(C)c1nc(C=CC(=O)COc2ccccc2)nc(C(C)(C)C)c1O` displayed a melting point of 98 to 100 °C. The result for `Cc1nc(-c2ccc(C(C)(C)C)cc2)sc1C(=O)O` reads 190 to 193 °C; that for `Cc1cccc(CC2CNC(=O)O2)c1` (centres undefined), 89 to 90.5 °C. The result for `COC(=O)c1cccc(/C=C/c2cccc(Br)c2)c1` reads 79 to 84 °C.
